Measurements from patent US6531604B2, “Benzothiepine derivatives, their production and use” (Takeda Chemical Industries, Ltd., priority 1998, dated 2003).

Test system: interstitial cells prepared from the femur bone marrow of a normal rat
Assay: Osteogenesis promoting effect: alkaline phosphatase activity in cultured rat bone marrow interstitial cells
Assay type: cell-based
Conditions: test compound 10^−5 M, added from 2nd day of culture, cultured additional 5 days; mean ± S.E. (n = 4); control 0.150 ± 0.009; ** p < 0.01 vs control
Experimental: Osteogenesis promoting effect:
Using the interstitial cells prepared from the femur bone marrow of a normal rat, an alkaline phosphatase activity was measured as an index of osteogenesis. Briefly, according to the method of Maniatopoulos et al. [Cell Tissue Research, volume 254, P.317 (1988)], the interstitial cells were prepared from the femur bone of a Sprague-Dawley male rat, 7 weeks of age, and cultured in an α-MEM (minimum essential medium) solution containing dexamethasone (10^−7M) and β-glycerophosphoric acid (10^−2M) in order to generate calcified bony tissue. One week later, the confluent primary cells were treated with 0.25% trypsin-0.2% EDTA solution, recovered, and subcultured on a culture plate at a cell density of […], (culture day 0). From the 2nd day of the culture, a test compound (10^−5 M) was added to the above culture solution, and cultured for additional 5 days. The cells were washed with a phosphate buffer, and after addition of 0.2% Nonidet P-40, they were homogenized and centrifuged at 3,000 rpm for 10 minutes. The supernatant was measured for an alkaline phosphatase activity according to the method of Lowry et al. [Journal of Biological Chemistry, volume 207, P.19 (1954)]. […] Statistical analysis was performed by means of the Student's t-test.

| Compound | Alkaline phosphatase activity (A405) |
| --- | --- |
| C[C@@H]1S[C@@H](C(=O)Nc2ccc(CC3SC(=O)NC3=O)cc2)Cc2cc3c(cc2C1=O)OCO3 (stereo partly drawn) [Example no. 1, (2R,4S)-N-[4-(2,4-Dioxothiazolidin-5-yl-methyl)phenyl]-1,2,4,5-tetrahydro-7,8-methylenedioxy-4-methyl-5-oxo-3-benzothiepine-2-carboxamide] | 0.489 ± 0.050** A405 |
| C[C@@H]1S[C@@H](C(=O)Nc2ccc(CN3CCOCC3)cc2)Cc2cc3c(cc2C1=O)OCO3 [Example no. 4, (2R,4S)-N-[4-(4-Morpholinylmethyl)phenyl]-1,2,4,5-tetrahydro-7,8-methylenedioxy-4-methyl-5-oxo-3-benzothiepine-2-carboxamide] | 0.394 ± 0.036** A405 |
| C[C@@H]1S[C@@H](C(=O)Nc2ccc(CC3OC(=O)NC3=O)cc2)Cc2cc3c(cc2C1=O)OCO3 (stereo partly drawn) [Example no. 10, (2R,4S)-N-[4-(2,4-Dioxo-oxazolidin-5-yl-methyl)phenyl]-1,2,4,5-tetrahydro-7,8-methylenedioxy-4-methyl-5-oxo-3-benzothiepine-2-carboxamide] | 0.535 ± 0.069** A405 |
| C[C@@H]1S[C@@H](C(=O)Nc2ccc(Cn3oc(=O)[nH]c3=O)cc2)Cc2cc3c(cc2C1=O)OCO3 [Example no. 11, (2R,4S)-N-[4-(3,5-Dioxo-1,2,4-oxadiazolidin-2-ylmethyl)phenyl]-1,2,4,5-tetrahydro-7,8-methylenedioxy-4-methyl-5-oxo-3-benzothiepine-2-carboxamide] | 0.399 ± 0.069** A405 |
